Results: ChEMBL document CHEMBL1201862, “PubChem BioAssay data set” (2004)
Active and inactive are the calls of the source.

Legend:
[1] = tested on: Streptococcus sp. 'group A'; assay: growth inhibition of control SK(-) GAS strain, dose response, counter-screen for streptokinase expression inhibitor project, luminescence, kanamycin, BacTiterGlo, confirmation (AID 1900); assay type: functional, organism-based
[2] = target: T1, E3 ubiquitin-protein ligase XIAP (Homo sapiens, UniProt P98170); assay: XIAP antagonists, biochemical, IAP family, fluorescence polarization (AID 1018); assay type: functional
[3] = cytotoxicity toward NIH3T3 fibroblasts, dose response, counter-screen, cell-based, ATP luminescence, mouse fibroblasts (AID 2010); assay type: functional;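 note: cells exposed to compound for about 90 hours before reading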
Melanocortin receptor 4 = Melanocortin receptor 4 (Homo sapiens, UniProt P32245); assay: MC4R antagonist potency on cAMP, dose response, cell-based, TR-FRET, biased antagonists (AID 602298); assay type: functional;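 note: antagonist potency against agonist-stimulated cAMP production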
Streptokinase A = target: T2, Streptokinase A (Streptococcus pyogenes serotype M1, UniProt P10520); assay: S. pyogenes streptokinase expression inhibitors, potency, dose response, plasminogen activation absorbance, OD405 (AID 1914); assay type: functional, Streptococcus pyogenes M1 GAS;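 note: secreted streptokinase activity via plasminogen activation per viability signal from cell pellet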
T2 sequence (P10520 whole entry): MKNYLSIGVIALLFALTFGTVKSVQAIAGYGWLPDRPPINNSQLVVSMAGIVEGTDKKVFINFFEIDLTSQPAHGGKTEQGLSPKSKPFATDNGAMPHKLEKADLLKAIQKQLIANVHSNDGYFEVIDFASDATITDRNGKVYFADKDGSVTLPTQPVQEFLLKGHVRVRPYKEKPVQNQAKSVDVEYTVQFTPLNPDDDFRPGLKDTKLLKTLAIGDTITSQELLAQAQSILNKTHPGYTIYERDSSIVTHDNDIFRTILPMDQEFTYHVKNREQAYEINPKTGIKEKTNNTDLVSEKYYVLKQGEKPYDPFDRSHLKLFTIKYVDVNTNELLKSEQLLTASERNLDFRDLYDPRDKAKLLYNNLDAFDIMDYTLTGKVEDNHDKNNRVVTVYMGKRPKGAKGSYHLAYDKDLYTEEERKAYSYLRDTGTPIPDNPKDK

Paired box protein Pax-8 = Paired box protein Pax-8 (Homo sapiens, UniProt Q06710); assay: inhibitors of PAX8-driven TPO luciferase reporter, dose response, RMG-I cells, cherry-pick (AID 687027); assay type: functional, cell-based;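 note: luciferase reporter driven by Pax8 target thyroperoxidase promoter measured by SteadyGlo luminescence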
[4] = non-specific cell cytotoxicity, dose response, cytotoxicity control for PAX8 inhibitor project, plate reader, dry powder samples (AID 743021); assay type: functional, cell-based
[5] = target: T1, E3 ubiquitin-protein ligase XIAP; assay: Counter Screen using XIAP-Bir3 for Chemical Antagonists of Bir1/2 domains of IAP-family anti-apoptotic proteins. [Related pubchem assays (depositor defined):AID1018, AID1449, AID1514, AID1638, AID1749, AID1750, AID488957, AID488963]
[6] = inhibitors of intracellular T. cruzi replication, confirmation, NIH3T3 host cells, beta-gal luminescence (AID 2044); assay type: functional, cell-based;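 note: intracellular parasites grown in NIH/3T3 mouse fibroblasts as host cells; luminescent beta-galactosidase reporter signal from transgenic T. cruzi replicating inside host cells; inhibitors lower the luminescence signal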
[7] = nonselective inhibitors of cellular cAMP signaling, dose response, counter-screen for MC4R biased antagonist project, cell-based, TR-FRET cAMP detection (AID 602305); assay type: functional;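 note: U2OS cells stimulated with forskolin near its EC80 as the cAMP inducer; potency is for inhibition of forskolin-stimulated cAMP signaling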
Streptococcus = assay: Group A Streptococcus viability loss, dose response, counter-screen for streptokinase expression inhibitor project, luminescence, BacTiterGlo (AID 1915); assay type: functional, organism-based;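 note: potency for reduction of bacterial viability or growth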
[8] = target: Potassium voltage-gated channel subfamily KQT member 2 (Rattus norvegicus, UniProt O88943); assay: KCNQ2 potassium channel inhibitors, dose response, cell-based, automated electrophysiology, set II, rat KCNQ2 (AID 588637); assay type: functional
[9] = target: T3, Microphthalmia-associated transcription factor (Homo sapiens, UniProt O75030); assay: TRPM1 promoter luciferase signal decrease, dose response, MITF inhibitor project, cell-based, SK-MEL-5, cherry-picked, set 3 (AID 493073); assay type: functional
T3 sequence (O75030 whole entry): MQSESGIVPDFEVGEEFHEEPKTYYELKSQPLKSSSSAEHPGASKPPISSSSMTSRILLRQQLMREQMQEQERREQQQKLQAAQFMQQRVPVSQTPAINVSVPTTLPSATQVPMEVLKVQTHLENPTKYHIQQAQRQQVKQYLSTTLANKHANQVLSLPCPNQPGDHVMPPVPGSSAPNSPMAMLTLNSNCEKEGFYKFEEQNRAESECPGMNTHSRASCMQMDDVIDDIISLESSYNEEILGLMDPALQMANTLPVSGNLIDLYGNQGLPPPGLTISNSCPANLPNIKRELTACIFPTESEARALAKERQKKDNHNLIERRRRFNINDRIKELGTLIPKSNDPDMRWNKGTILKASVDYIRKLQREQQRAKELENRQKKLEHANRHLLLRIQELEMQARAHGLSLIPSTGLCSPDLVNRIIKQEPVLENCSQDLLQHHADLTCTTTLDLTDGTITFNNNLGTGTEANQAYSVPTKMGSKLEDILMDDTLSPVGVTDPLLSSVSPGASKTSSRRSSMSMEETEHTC

[10] = target: SWI/SNF-related matrix-associated actin-dependent regulator of chromatin subfamily A member 2 (Homo sapiens, UniProt P51531); assay: Luminescence-based cell-based high throughput dose response assay to identify activators of the function of SWI/SNF related, matrix associated, actin dependent regulator of chromatin, subfamily a, member 2 (SMARCA2, BRM).; assay type: functional
[11] = target: T4, Methionyl-tRNA synthetase, putative (Trypanosoma brucei brucei, UniProt Q38C91); assay type: functional, Trypanosoma brucei brucei strain 927/4 GUTat10.1
[12] = Counterscreen for inhibitors of Trypanosoma brucei methionyl tRNA synthetase (MetRS): Luminescence-based cell-based high throughput dose response assay to identify compounds that are cytotoxic to Jurkat human T lymphocyte cells.; assay type: functional
[13] = target: T4, Methionyl-tRNA synthetase, putative; assay type: functional, Trypanosoma brucei brucei strain 927/4 GUTat10.1; remark: listed apart in the source
[14] = target: Aryl hydrocarbon receptor (Homo sapiens, UniProt P35869); conditions: Potency;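 note: confirmatory quantitative high-throughput screen measuring activation of the AhR signaling pathway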
[15] = target: Ras and Rab interactor 1/Tyrosine-protein kinase ABL1 (Homo sapiens, UniProt P00519+Q13671); assay type: functional;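 note: biochemical TR-FRET dose-response test measuring inhibition of binding between Rin1 and Abl proteins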
SUMO-activating enzyme [16] = target: T5, SUMO-activating enzyme (Homo sapiens, UniProt Q9UBT2); assay: SUMOylation inhibitor hit validation, confirmation, SUMOylation inhibitor project, biochemical, AlphaScreen (AID 2018); assay type: functional
[17] = target: T6, Sentrin-specific protease 8 (Homo sapiens, UniProt Q96LD8); assay type: functional
T6 sequence (Q96LD8 whole entry): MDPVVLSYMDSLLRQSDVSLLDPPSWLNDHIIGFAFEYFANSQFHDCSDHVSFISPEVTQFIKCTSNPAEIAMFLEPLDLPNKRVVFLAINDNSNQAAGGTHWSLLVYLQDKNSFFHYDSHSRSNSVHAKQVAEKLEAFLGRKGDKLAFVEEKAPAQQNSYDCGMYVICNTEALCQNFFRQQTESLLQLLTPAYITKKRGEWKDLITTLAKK

SUMO-activating enzyme [18] = target: T5, SUMO-activating enzyme; assay: inhibitors of in vitro SUMOylation cascade, primary screen, biochemical, HTRF, uHTS (AID 2006); assay type: protein-complex assay
[19] = target: T6, Sentrin-specific protease 8; assay type: functional; remark: listed apart in the source

T5 sequence (Q9UBE0 whole entry): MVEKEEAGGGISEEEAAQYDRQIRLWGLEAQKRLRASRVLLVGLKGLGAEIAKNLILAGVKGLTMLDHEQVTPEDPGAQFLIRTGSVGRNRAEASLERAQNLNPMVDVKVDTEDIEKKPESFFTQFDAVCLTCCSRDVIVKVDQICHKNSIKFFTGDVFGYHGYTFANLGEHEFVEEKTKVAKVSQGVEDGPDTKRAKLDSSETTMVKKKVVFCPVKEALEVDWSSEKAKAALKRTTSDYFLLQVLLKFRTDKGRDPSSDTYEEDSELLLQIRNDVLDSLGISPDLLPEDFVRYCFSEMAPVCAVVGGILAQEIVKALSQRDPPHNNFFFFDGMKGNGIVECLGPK
T5 sequence (Q9UBT2 whole entry): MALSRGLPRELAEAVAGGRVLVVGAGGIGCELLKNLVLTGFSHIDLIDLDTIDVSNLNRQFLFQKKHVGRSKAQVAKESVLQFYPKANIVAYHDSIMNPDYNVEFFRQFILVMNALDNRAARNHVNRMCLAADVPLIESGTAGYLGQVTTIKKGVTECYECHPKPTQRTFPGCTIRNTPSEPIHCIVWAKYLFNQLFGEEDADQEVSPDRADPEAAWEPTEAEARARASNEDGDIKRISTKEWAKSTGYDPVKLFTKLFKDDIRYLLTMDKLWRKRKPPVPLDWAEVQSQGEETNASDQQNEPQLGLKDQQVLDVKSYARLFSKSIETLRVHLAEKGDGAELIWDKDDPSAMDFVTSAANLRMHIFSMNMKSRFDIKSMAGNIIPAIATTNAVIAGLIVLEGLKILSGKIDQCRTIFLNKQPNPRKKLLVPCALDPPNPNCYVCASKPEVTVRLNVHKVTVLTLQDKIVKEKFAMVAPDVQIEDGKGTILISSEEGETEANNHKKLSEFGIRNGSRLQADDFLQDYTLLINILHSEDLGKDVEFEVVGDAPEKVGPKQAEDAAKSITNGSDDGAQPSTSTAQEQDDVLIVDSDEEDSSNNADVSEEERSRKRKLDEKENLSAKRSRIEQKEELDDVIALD
T1 sequence (P98170 whole entry): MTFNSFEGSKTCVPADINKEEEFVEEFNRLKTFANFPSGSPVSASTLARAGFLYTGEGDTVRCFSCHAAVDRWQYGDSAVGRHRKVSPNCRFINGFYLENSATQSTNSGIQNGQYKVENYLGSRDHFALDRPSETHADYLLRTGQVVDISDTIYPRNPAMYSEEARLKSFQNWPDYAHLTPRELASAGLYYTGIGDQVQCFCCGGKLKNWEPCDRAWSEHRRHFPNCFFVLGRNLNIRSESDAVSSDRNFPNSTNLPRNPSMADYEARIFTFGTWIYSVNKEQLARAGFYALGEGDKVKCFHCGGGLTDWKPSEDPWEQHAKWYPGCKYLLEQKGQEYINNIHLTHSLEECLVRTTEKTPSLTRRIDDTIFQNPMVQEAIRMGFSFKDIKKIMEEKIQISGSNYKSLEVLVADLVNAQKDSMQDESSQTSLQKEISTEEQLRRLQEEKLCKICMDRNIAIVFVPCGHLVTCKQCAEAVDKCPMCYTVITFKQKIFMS
T4 sequence (Q38C91 whole entry): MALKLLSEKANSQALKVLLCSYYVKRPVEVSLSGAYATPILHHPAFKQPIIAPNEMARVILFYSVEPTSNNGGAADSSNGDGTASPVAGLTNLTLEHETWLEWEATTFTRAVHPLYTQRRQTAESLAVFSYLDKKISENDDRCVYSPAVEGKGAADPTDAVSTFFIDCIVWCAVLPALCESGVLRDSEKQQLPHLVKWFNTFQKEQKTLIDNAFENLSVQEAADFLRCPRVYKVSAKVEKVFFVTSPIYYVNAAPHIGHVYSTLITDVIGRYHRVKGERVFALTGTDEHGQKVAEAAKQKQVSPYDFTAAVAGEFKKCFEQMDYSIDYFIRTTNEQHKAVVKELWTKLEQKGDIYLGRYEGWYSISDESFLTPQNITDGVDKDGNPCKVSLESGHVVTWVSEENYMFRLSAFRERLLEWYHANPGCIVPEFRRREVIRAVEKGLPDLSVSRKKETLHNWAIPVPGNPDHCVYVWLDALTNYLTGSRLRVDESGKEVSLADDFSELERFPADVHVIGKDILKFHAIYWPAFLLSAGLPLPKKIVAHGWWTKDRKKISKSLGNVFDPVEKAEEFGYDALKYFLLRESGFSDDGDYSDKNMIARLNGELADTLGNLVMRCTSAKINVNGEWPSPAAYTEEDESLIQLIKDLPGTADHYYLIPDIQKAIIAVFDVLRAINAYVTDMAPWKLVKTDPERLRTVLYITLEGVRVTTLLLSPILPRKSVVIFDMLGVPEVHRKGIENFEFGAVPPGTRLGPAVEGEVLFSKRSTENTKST
Paired box protein Pax-8, sequence (Q06710 whole entry): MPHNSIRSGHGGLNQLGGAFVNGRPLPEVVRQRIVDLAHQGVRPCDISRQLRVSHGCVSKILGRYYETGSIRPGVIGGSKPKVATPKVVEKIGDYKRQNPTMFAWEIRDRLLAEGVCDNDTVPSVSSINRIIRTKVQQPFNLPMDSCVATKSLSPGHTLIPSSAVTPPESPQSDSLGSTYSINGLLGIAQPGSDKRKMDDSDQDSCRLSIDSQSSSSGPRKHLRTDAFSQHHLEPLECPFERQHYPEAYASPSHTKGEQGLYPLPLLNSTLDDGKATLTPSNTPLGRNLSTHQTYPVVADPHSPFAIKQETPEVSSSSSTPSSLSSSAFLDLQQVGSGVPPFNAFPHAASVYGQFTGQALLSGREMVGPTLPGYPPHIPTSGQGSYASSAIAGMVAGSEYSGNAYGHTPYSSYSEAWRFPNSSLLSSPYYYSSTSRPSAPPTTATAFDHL
SWI/SNF-related matrix-associated actin-dependent regulator of chromatin subfamily A member 2, sequence (P51531 whole entry): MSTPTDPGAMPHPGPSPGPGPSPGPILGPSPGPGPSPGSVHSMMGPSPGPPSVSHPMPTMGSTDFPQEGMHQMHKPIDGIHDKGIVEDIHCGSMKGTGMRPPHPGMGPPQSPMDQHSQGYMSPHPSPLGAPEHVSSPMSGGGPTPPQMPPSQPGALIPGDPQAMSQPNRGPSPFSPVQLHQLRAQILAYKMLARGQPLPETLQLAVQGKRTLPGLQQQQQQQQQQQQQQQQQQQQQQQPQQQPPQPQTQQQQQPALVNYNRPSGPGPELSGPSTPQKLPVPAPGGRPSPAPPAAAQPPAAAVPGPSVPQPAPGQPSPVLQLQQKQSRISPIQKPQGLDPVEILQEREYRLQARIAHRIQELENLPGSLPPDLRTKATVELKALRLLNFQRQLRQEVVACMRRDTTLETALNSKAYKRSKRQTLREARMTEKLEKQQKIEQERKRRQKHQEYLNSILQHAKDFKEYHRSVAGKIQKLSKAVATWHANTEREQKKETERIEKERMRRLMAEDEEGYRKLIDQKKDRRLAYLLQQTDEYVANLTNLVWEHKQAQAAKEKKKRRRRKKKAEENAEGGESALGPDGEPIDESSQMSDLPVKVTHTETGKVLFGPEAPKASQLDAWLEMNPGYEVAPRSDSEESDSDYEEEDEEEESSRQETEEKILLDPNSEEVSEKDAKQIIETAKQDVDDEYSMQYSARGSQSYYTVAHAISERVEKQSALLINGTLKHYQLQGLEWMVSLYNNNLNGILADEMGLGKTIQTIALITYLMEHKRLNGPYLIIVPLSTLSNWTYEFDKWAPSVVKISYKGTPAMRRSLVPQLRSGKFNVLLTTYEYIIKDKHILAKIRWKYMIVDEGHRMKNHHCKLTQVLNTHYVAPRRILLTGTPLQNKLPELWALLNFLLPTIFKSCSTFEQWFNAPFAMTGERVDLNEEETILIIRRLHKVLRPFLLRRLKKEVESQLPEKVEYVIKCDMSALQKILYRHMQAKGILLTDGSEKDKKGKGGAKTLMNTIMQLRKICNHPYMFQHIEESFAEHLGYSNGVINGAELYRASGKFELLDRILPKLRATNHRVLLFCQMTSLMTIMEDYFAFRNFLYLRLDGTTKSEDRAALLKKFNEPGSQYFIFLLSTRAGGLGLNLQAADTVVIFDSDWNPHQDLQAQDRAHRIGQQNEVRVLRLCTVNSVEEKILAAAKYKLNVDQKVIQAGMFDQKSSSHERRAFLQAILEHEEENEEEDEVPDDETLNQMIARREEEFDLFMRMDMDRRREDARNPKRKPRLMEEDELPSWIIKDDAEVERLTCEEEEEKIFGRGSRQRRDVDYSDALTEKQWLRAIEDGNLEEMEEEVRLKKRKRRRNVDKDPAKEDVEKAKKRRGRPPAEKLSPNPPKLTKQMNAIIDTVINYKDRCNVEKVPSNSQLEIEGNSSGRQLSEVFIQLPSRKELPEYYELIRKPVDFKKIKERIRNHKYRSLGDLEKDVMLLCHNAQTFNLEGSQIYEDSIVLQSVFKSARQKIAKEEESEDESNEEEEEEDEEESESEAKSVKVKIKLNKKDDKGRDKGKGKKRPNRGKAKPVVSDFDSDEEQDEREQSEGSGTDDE
Melanocortin receptor 4, sequence (P32245 whole entry): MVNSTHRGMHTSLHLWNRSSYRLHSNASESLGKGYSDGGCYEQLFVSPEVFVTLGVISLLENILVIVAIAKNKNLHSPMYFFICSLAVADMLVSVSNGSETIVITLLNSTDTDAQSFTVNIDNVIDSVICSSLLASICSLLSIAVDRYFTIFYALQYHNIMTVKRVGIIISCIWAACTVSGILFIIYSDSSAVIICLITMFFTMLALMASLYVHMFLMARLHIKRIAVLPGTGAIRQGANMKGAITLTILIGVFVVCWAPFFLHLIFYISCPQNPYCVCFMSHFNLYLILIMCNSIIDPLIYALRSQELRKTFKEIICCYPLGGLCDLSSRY

SMILES: COc1cc(/C=N/Nc2nc(Nc3ccc(C)cc3)nc(-n3nc(C)cc3C)n2)cc(OC)c1OC
- EC50 [1]: 1.82 µM (active)
- IC50 [2]: > 100 µM (not active)
- EC50 [3]: 11 µM (active)
- IC50 (Melanocortin receptor 4): > 64.6 µM (inactive)
- EC50 (Streptokinase A): > 150 µM (not active)
- AC50 (Paired box protein Pax-8): 6.57 µM (active)
- AC50 [4]: 38.4 µM (active)
- IC50 [5]: > 100 µM (inactive)
- EC50 [6]: 0.608 µM (active)
- IC50 [7]: > 64.6 µM (inactive)
- EC50 (Streptococcus): 15.5 µM (active)

SMILES: CCOC(=O)N1CCC(N(CCOC)C(=O)Nc2ccc(C)c(C)c2)CC1
- IC50 [8]: 0.477 µM (active)

SMILES: Nc1nc2nn[nH]c2c(=O)[nH]1 [8-AZAGUANINE]
- AC50 [9]: 0.875 µM (active)
- EC50 [10]: > 91.2 µM (inactive)

SMILES: COc1ccccc1NC(=O)c1ccc(-n2ccnc2)c([N+](=O)[O-])c1
- IC50 [11]: 55.4 µM (inactive)
- IC50 [12]: 83.3 µM (inactive)
- IC50 [13]: 29 µM (inactive)

SMILES: Oc1ccc(O)c2c(O)cccc12
- AC50 [14]: 39.8 µM (inconclusive)

SMILES: Nc1cc(O)c2[nH]cnc2n1
- IC50 [15]: 33.6 µM (inactive)

SMILES: COc1cc(O)c(NC(C)=O)c2nonc12
- IC50 (SUMO-activating enzyme [16]): 7.24 µM (active)
- IC50 [17]: 8.37 µM (active)
- IC50 (SUMO-activating enzyme [18]): 74.2 µM (active)
- IC50 [19]: 14.6 µM (active)
